Values of other authors, collected in patent publication US20160174564A1, “BIOCIDE-FREE PREWETTED SPONGE CLOTH” (Kalle GmbH, priority 2014, published 2016).

Conditions: saturated solutions of different salts; 20° C.

SMILES	aw value
[Cl-].[K+] [KCl]	0.843
[Cl-].[Li+] [LiCl]	0.112
O=[N+]([O-])[O-].O=[N+]([O-])[O-].[Mg+2] [Mg(NO3)2]	0.529
[Cl-].[Cl-].[Mg+2] [MgCl2]	0.327
[Br-].[Na+] [NaBr]	0.577
[Cl-].[Na+] [NaCl]	0.753
O=C([O-])[O-].[K+].[K+] [Sample K2CO3, K2CO3]	0.438
[Cl-].[Cl-].[Sr+2] [SrCl2]	0.708
